The record followed here is patent publication US8629277B2, “Styrenyl 1,2,4-oxadiazole compounds” (Piramal Enterprises Limited, priority 2010, dated 2014).

Where two headings read alike, the source gives them in different places.

In one assay the target is Ba/F3 Bcr-Abl/T315I (Homo sapiens, UniProt P00519, T315I, cells depend on it). From the text: Cell Proliferation and Cytotoxicity CCK-8 Assay:
Cell Counting Kit-8 (CCK-8) assay is a sensitive colorimetric assay for the determination of number of viable cells in cell proliferation and cytotoxicity assays. Cell Counting Kit-8 (CCK-8) utilizes Dojindo's highly water-soluble tetrazolium salt. The amount of the formazan dye generated by dehydrogenases in cells is directly proportional to the number of living cells.
The cell lines described in Table 1 were used to test the antiproliferative activity of the compounds of the present invention.
Cells were seeded at a density of ˜5×10^3 per well (0.09 mL) in a transparent 96-well tissue culture plate (NUNC, USA) and allowed to incubate at 37° C., 5% CO2 incubator for 2-6 h. Different concentrations of compounds of the present invention were added to the wells of the culture plate in triplicate. […] Plates were further incubated in an incubator at 37° C. in presence of 5% CO2 for 72 h. 10 μL of the CCK-8 solution was added to each well and plate was incubated for 1-4 h in the incubator. The absorbance was measured at 450 nm using a microplate reader. The percent inhibition and IC50 were calculated in comparison with control values.

A further assay concerns the target T1, Ba/F3 Bcr-Abl/M351T (Homo sapiens, UniProt P00519, M351T, cells depend on it).
T1 construct: fused on or other part: P11274 (Breakpoint cluster region protein)
In words: Cell proliferation and cytotoxicity CCK-8 assay. It counts as cell-based. As to conditions: mouse, 72 h.

The next assay concerns the target T2, Ba/F3 Bcr-Abl/Q252H (Homo sapiens, UniProt P00519, Q252H, cells depend on it).
T2 construct: fused on or other part: P11274 (Breakpoint cluster region protein)
Put plainly: Cell proliferation and cytotoxicity CCK-8 assay. It counts as cell-based. As to conditions: mouse, 72 h. (In general: Tetrazolium dyes change colour on reduction, which living cells bring about.)

A further assay concerns the target T3, Ba/F3 Bcr-Abl/Y253F (Homo sapiens, UniProt P00519, Y253F, cells depend on it).
T3 construct: fused on or other part: P11274 (Breakpoint cluster region protein)
In words: Cell proliferation and cytotoxicity CCK-8 assay. The assay is classed as cell-based. As to conditions: mouse, 72 h.

A further assay deals with Ba/F3. In words: Flow cytometric analysis of apoptosis (PI staining). The assay is classed as cell-based. The method, then:
(§1) Effect of the Compounds of Present Invention in Bcr-Abl Mutated Imatinib Mesylate-Resistant Cell Lines on Cell Cycle and Apoptosis Using Flow Cytometry.
(§2) The assay was carried out as in reference, FEBS Letters, 2007, 581, 7, 1329-1334. […] At the end of incubation, cells were harvested by centrifugation at 1000 rpm for 10 minutes, washed with phosphate buffered saline (PBS) and gradually resuspended in 70% ice-cold ethanol (to facilitate the permeablisation of stains). Cell suspension was stored for a minimum period of 4 h before staining with propidium iodide (PI). Fixed cells were stained with PI (80 μg/mL) in presence of RNase A (50 μg/mL), and read on Becton Dickinson FACS Calibur (USA) for cell cycle analysis.

In the next assay the test system is E255V. The description is as above. The assay is classed as cell-based. As for the experimental part: as §1, §2
The test system of the next assay is T315I. The description is as above. It counts as cell-based. The method, then: as §1, §2
In the next assay the test system is Y253. Described as above. It counts as cell-based. The method, then:
as §1, §2

For the next assay, the system named is Ba/F3 Bcr-Abl/WT. In words: In-vivo efficacy in imatinib-sensitive xenograft model in SCID mice. As to conditions: 200 mpk b.i.d., p.o. As for the experimental part: In-vivo efficacy testing of compounds of the present invention in imatinib resistant and imatinib sensitive tumor models was carried out according to the reference Cancer Research, 2002, 62, 7149-7153.
Cell lines Ba/F3 transfectants expressing full-length wild type imatinib sensitive (Ba/F3 Bcr-Abl/WT) or mutated imatinib resistant (Ba/F3 Bcr-Abl/T315I) were used in this study. These recombinant cell lines were licensed from Dr. Brian Druker's laboratory, Howard Hughes Medical Institute, Oregon Health and Science University Cancer Institute, Portland, Oreg., USA.
Required compound was weighed and admixed with 0.5% (w/v) carboxymethylcellulose (CMC) and triturated with Tween-20 (secundum artum) with gradual addition of water to make up the final concentration. Imatinib mesylate was used as a standard.
A group of 110 Severely Combined Immune-Deficient (SCID strain-CBySmn.CB17-Prkdc^scid/J, The Jackson Laboratory, Stock #001803) male mice, 5-6 weeks old, weighing ˜20 g, were used.
Ba/F3 Bcr-Abl/WT cells and Ba/F3 Bcr-Abl/T315I cells were grown in RPMI1640 medium containing 10% fetal calf serum in 5% CO2 incubator at 37° C. Cells were pelleted by centrifugation at 1000-rpm for 10 minutes. […] Tumor size was recorded at 2-5 day intervals. […] Tumor growth in compound treated animals is calculated as T/C (Treated/Control)×100% and Growth inhibition Percent (GI %) was [100−T/C %].

The mark [1] stands for this setting: mouse, ba/f3 bcr-abl/t315i, 72 h.
[2] abbreviates: read-out: Inhibitory concentrations (IC50) Ba/F3 Bcr-Abl/T315I, imatinib resistant cell line, CCK-8, 72 h.

With `CCCc1noc(C=Cc2ccc(O)c(O)c2)n1` [Compound of Example 3, 4-[2-(3-Propyl-[1,2,4]oxadiazol-5-yl)-vinyl]-benzene-1,2-diol], the GI50 at Ba/F3 Bcr-Abl/T315I (setting [1]) is 2.32 ± 0.68 µM; at Ba/F3 Bcr-Abl/T315I (setting [2]), less than 10 µM; at Ba/F3 Bcr-Abl/M351T, 5.7 ± 1.7 µM; at Ba/F3 Bcr-Abl/Q252H, 2.6 ± 0.84 µM; at Ba/F3 Bcr-Abl/Y253F it was 1.5 ± 0.56 µM. Besides, the “% Apoptosis by Flow Cytometry Analysis” value is 95% in the assay with Ba/F3 (3X IC50, 96 h time point); 46% in the assay on Ba/F3 (5X IC50, 48 h time point); 84% with Ba/F3 (5X IC50, 96 h time point); 78% with E255V (3X IC50, 96 h time point); 91.2% in the assay with E255V (5X IC50, 48 h time point); 90.9% in the assay on E255V (5X IC50, 96 h time point). Further, the “% Apoptosis by Flow Cytometry Analysis” value with T315I (3X IC50, 96 h time point) came out at 78%; in the assay on T315I (5X IC50, 48 h time point), 97.6%; in the assay on T315I (5X IC50, 96 h time point), 85%; in the assay with Y253 (3X IC50, 96 h time point) it was 62%; in the assay on Y253 (5X IC50, 48 h time point) it was 87.5%; in the assay on Y253 (5X IC50, 96 h time point), 94.9%. Further, the “Tumor growth inhibition percent (% GI) Ba/F3 Bcr-Abl/WT” value in the assay on Ba/F3 Bcr-Abl/WT turned out to be 63%.

With `Oc1ccc(C=Cc2nc(Cc3ccccc3)no2)cc1O` [Compound of Example 4, 4-[2-(3-Benzyl-[1,2,4]oxadiazol-5-yl)-vinyl]-benzene-1,2-diol], the GI50 at Ba/F3 Bcr-Abl/T315I (setting [1]) was 1.88 ± 0.31 µM; on Ba/F3 Bcr-Abl/T315I (setting [2]) it was less than 10 µM; on Ba/F3 Bcr-Abl/M351T it was 7.5 ± 0.7 µM; on Ba/F3 Bcr-Abl/Q252H, 3.65 ± 0.65 µM; on Ba/F3 Bcr-Abl/Y253F, 2.1 ± 0.14 µM. Moreover, the “% Apoptosis by Flow Cytometry Analysis” value stood at 97% in the assay with Ba/F3 (3X IC50, 96 h time point); 46% in the assay with Ba/F3 (5X IC50, 48 h time point); 93% in the assay with Ba/F3 (5X IC50, 96 h time point); 94.4% in the assay with E255V (3X IC50, 96 h time point); 93% with E255V (5X IC50, 48 h time point); 97.4% in the assay with E255V (5X IC50, 96 h time point). Moreover, the “% Apoptosis by Flow Cytometry Analysis” value came out at 80.58% with T315I (3X IC50, 96 h time point); 98.2% with T315I (5X IC50, 48 h time point); 63.9% with T315I (5X IC50, 96 h time point); 70.6% with Y253 (3X IC50, 96 h time point); 89% in the assay with Y253 (5X IC50, 48 h time point); 96.6% with Y253 (5X IC50, 96 h time point). In addition, the “Tumor growth inhibition percent (% GI) Ba/F3 Bcr-Abl/WT” value with Ba/F3 Bcr-Abl/WT was found to be 36%.
